System: synthetic oligosaccharides and native S. pneumoniae serotype 2 capsular polysaccharides printed on slides
Conditions: mice s.c., pooled sera
Protocol: On day 14 and 28 mice were received a booster injection with the same amount of antigen emulsified with 1:1 (v/v) alum. […] Mice were bled submandibular weekly using sterile single-use blood lancet. Control mice received only PBS and PBS in alum. The antibody responses were measured in both sera by glycan microarray and ELISA.
Preparation of microarrays slides: The CodeLink NHS activated glass slides (Surmodics) were spotted with synthetic glycans and native polysaccharides at two different concentration (100 μM and 200 μM) in printing buffer (50 mM sodium phosphate, pH 8.5) by using a S3 piezoelectric microarray printer (Scienion) equipped with a type 4 coated nozzle. The relative humidity of spotted chamber was constantly maintained at 65%. The spotted slides were incubated over night at room temperature in a humidifying chamber. […]
Microarray binding assays: The printed slides were blocked with PBS-BSA (1%) for 1 h at room temperature and washed 3 times with PBS. […] Slides were incubated with a fluorescence-labeled goat anti-mouse secondary antibodies (Life Technologies) diluted in 1% BSA in PBS (w/v) in a humid chamber for 1 h at room temperature, washed three times with PBST, rinsed once with deionized water and dried by centrifugation (300×g, 5 min) prior to scanning with a GenePix 4300A microarray scanner (Molecular Devices, Sunnyvale, Calif., USA). […]

C[C@@H]1O[C@H](O[C@H]2[C@H](O)[C@@H](O)[C@H](O[C@@H]3[C@@H](O)[C@H](C)O[C@@H](O[C@@H]4[C@@H](O)[C@H](C)O[C@@H](OCCCCCN)[C@@H]4O)[C@@H]3O[C@H]3O[C@H](CO[C@H]4O[C@H](C(=O)O)[C@@H](O)[C@H](O)[C@H]4O)[C@@H](O)[C@H](O)[C@H]3O)O[C@@H]2CO)[C@H](O)[C@H](O)[C@H]1O [hexasaccharide 2, 5-amino pentyl β-L-rhamnopyranosyl-(1→4)-β-D-glucopyranosyl-(1→3)-α-L-{α-D-glucopyranosyl uronate-(1→6)-α-D-glucopyranosyl-(1→2)}rhamnopyranosyl-(1→3)-α-L-rhamnopyranoside]
antibody response specific to hexasaccharide 2 / core glycan structures (immunogenicity) (3 μg sugar per dose with alum 1:1, boosts day 14 and 28, anti-mouse IgG): immunogenic in mice | cross-reactivity of raised antibodies with other fragments of hexasaccharide 2 printed on the slides (3 μg sugar per dose with alum 1:1): induces cross-reactive antibodies
